This is an account of results in US20100010082A1, “FORMULATIONS FOR TREATING EYE DISORDERS” (Aspreva International Ltd., priority 2008, published 2010).

Read-outs that look alike come from different tables or passages of the source. Marks after values point to notes of the source that are not given here. Bounds are passed on as bounds.

For data set [1] the following is noted: CellCept® label / Myfortic® label; cited from earlier work.
The subject of data set [2] is Scopolamine Induced Dry Eye in C57BL/6 Mice. The experiment in a line: Scopolamine induced dry eye model. Type of data set: in vivo, Mus musculus. Particulars: by the end of the study (Day 13). Here is the method: This dry eye model was based on that described in De Paiva et al., 2006, Investigative Opthalmology & Visual Science 47(7):2847-2856, incorporated herein by reference. The study consisted of seven groups of 10 female C57BL/6 mice each. Starting on Day 0, mice of Groups 1-6 were treated four times-daily (QID) with topical bilateral ocular (OU) administration of control or test articles at intervals of at least two hours. […] Mice in Group 7 served as untreated controls. On Day 3, scopolamine patches were placed on the tails of the mice and replaced every other day (Q2D) thereafter. From Days 3-12, mice were maintained in an environment with high-volume air draft (see Environmental stress section, below). […]
For each day of administration, mice were briefly restrained. […] Following patch application, animals were monitored for any adverse reactions, including the condition of the tail and Vetwrap®. […]
Slit Lamp Corneal Examinations. Both eyes of each animal were evaluated via a slit lamp ophthalmic examination using topically-applied fluorescein. Fluorescein dye was used to examine the surface of the cornea and scored.
Pathology. […] A board-certified veterinary pathologist evaluated slides via light microscopy. […]
Eyes were serially sectioned and examined. The representative corneas were scored based upon a 0-4 scale, with 0 being normal, 1 being minimal, 2 being mild, 3 being moderate, and 4 being severe. […]

The test system of data set [3] is Con-A-induced dry eye in NZW rabbits. The experiment in a line: Con A induced dry eye model, Tear Break-up Test (TBUT). Type of data set: in vivo, Oryctolagus cuniculus.
Data set [4] has as its system Bovine Ocular Melanin Induced Uveitis in Lewis Rats.
Where [5] appears, read: Days 17/18, pooled average (+/−SEM) of both eyes.
[6] abbreviates: Days 19/20, pooled average (+/−SEM) of both eyes.
The mark [7] stands for this setting: Days 26/27, pooled average (+/−SEM) of both eyes.
Where [8] appears, read: Days 28/29, pooled average (+/−SEM) of both eyes.
Setting [9] is: Days −2/−1 (before immunization and dosing).

For `COc1c(C)c2c(c(O)c1C/C=C(\C)CCC(=O)OCCN1CCOCC1)C(=O)OC2` [MMF, mycophenolate mofetil], the “solubility (in words)” value in data set [1] is reported as “only slightly soluble in water”.
As for `COc1c(C)c2c(c(O)c1C/C=C(\C)CCC(=O)[O-])C(=O)OC2.[Na+]` [NaMPA, sodium mycophenolic acid], the “solubility (in words)” value in data set [1] is recorded as “highly soluble in aqueous solutions at physiological pH”.
`C[C@@H]1C[C@H]2[C@@H]3CCC4=CC(=O)C=C[C@]4(C)[C@@]3(F)[C@@H](O)C[C@]2(C)[C@@]1(O)C(=O)CO` [dexamethasone]: in data set [2], the “weight loss relative to other groups” value is given as “approx. 20%”. Besides, the “TBUT, post-hoc Tukey P vs. Vehicle” value in data set [3] (D6 (before Con A injection on Day 8)) was <0.01; in data set [3] (D9), <0.05; in data set [3] (D10), <0.01; in data set [3] (D14) it was <0.001; in data set [3] (D15), <0.01; in data set [3] (D16) it was <0.001. In data set [3] (D17), the “TBUT, post-hoc Tukey P vs. Vehicle” value is <0.001. In addition, the “Hyperemia Scores (pooled)” value in data set [4] (Days 14/15, pooled average (+/−SEM) of both eyes) is listed as 2.0 ±; in data set [4] (setting [5]), 2.2 ±; in data set [4] (setting [6]) it was 3.0 ± 0.0; in data set [4] (setting [7]), 1.5 ± 0.5; in data set [4] (setting [8]), 0.0*; in data set [4] (setting [9]), 0. Also, the “Opacity Scores (pooled)” value was 1.1 ± in data set [4] (setting [5]); 2.0 ± 0.0 in data set [4] (setting [6]); 1.3 ± 0.5 in data set [4] (setting [7]); 0.0* in data set [4] (setting [8]); 0 in data set [4] (setting [9]). The “weight loss during study” value in data set [4] (rat, in vivo) is “significant drug-related weight loss”.
